Values joined by “and” are separate entries in the source; they are usually repeats but may differ in a detail not shown here. Identical values can stand only once.
What was measured:
[1] = system: Sarcoma 180 ascites; experiment: Sarcoma 180 ascites antitumor screening; type: in vivo, Female CFW mice; settings: for %ILS: ILS ≧ 50% indicates activity; for Surv.: survivors per 6 mice at twice the MST of controls
Protocol: (§1) Each compound was evaluated in at least one of these screens.
Female CFW mice (18 - 25 g) were implanted with 2 x 10⁶ cells ip on day zero. Compounds were administered in 0.5 mL water ip on day one. Groups of 6 mice were used for each test dose as well as controls as defined above. The test was run for twice the MST of the control group, with survivors counted as dying on that day. An ILS of ≧ 50% indicates activity. The tumor line was maintained through weekly transfer of 4 x 10⁶ cells in CFW mice.

[2] = system: L1210 Leukemia; experiment: L1210 leukemia antitumor screening; type: in vivo, Female CDF₁ mice; settings: for %ILS: ILS ≧ 25% represents activity; for Surv.: survivors per 6 mice at three times the MST of controls
Protocol: as §1
L1210 screening was conducted according to a published method. See Rose, W.C.; Schurig, J.F.; Huftalen, J.B.; Bradner, W.T. Cancer Treat. Rep. […] Female CDF₁ mice (16 - 22 g) were implanted with 1 x 10⁶ tumor cells ip on day zero. Compounds were administered in 0.5 mL water ip on day one. Groups of 6 mice were used for each dose. A control group received only tumor and 0.5 mL water. A positive control group received tumor and 8 mg/kg cisplatin in 0.5 mL of 0.15 M NaCl. The test was terminated after three times the mean survival time (MST) of the control group, surviving mice were counted as dying on that day. Activity was determined based on the percent increase in MST of test mice over controls (%ILS). […] The tumor line was maintained through weekly transfer of 5 x 10⁴ cells in DBA/2 mice.

[3] = S180a, dose 10 mg/kg ip in water on day one
[4] = S180a, dose 20 mg/kg ip in water on day one
[5] = S180a, dose 40 mg/kg ip in water on day one
[6] = S180a, dose 80 mg/kg ip in water on day one
[7] = S180a, dose 160 mg/kg ip in water on day one
[8] = S180a, dose 320 mg/kg ip in water on day one

Molecule | %ILS [1, 3] [%] | Surv. ([1]; S180a, dose 10 mg/kg ip) | %ILS [1, 4] [%] | Surv. ([1]; S180a, dose 20 mg/kg ip) | %ILS [1, 5] [%] | Surv. ([1]; S180a, dose 40 mg/kg ip) | %ILS [1, 6] [%] | Surv. ([1]; S180a, dose 80 mg/kg ip) | %ILS [1, 7] [%] | Surv. ([1]; S180a, dose 160 mg/kg ip) | %ILS [1, 8] [%] | Surv. ([1]; S180a, dose 320 mg/kg ip) | further results
CC1CCNCC1.N.N.O=[N+]([O-])[O-].[Cl-].[Pt+2] [cis-[Pt(NH3)2(4-methylpiperidine)Cl]NO3, cis-[Pt(NH₃)₂(4-methylpiperidine)Cl]NO₃] | 4 | 0/6 | 13 | 0/6 | 18 | 0/6 | 76 | 1/6 | 4 | 1/6 | -80 | 0/6 | %ILS ([2]; L1210, dose 10 mg/kg ip in water on day one): 24%; Surv. ([2]; L1210, dose 10 mg/kg ip): 0/6; %ILS ([2]; L1210, dose 20 mg/kg ip in water on day one): 17%; Surv. ([2]; L1210, dose 20 mg/kg ip): 0/6; %ILS ([2]; L1210, dose 40 mg/kg ip in water on day one): 60%; Surv. ([2]; L1210, dose 40 mg/kg ip): 0/6; %ILS ([2]; L1210, dose 80 mg/kg ip in water on day one): 57%; Surv. ([2]; L1210, dose 80 mg/kg ip): 0/6; %ILS ([2]; L1210, dose 160 mg/kg ip in water on day one): -28%; Surv. ([2]; L1210, dose 160 mg/kg ip): 0/6; %ILS ([2]; L1210, dose 320 mg/kg ip in water on day one): -68%; Surv. ([2]; L1210, dose 320 mg/kg ip): 0/6
CCCCCCCC[NH2+][Pt-2]([NH3+])([NH3+])[Cl].O=[N+]([O-])[O-] [cis-[Pt(NH3)2(octylamine)Cl]NO3, cis-[Pt(NH₃)₂(octylamine)Cl]NO₃] | 16 | 0/6 | 25 | 0/6 | 22 | 0/6 | -78 | 0/6 | -78 | 0/6 | -95 | 0/6 | activity in the S-180 ascites screen ([1]; statement in words): substantially no activity
O=[N+]([O-])[O-].[NH3+][Pt-2]([NH3+])([Cl])[NH2+]CC1CCCCC1 (stereo not drawn) [cis-[Pt(NH₃)₂(cyclohexanemethylamine)Cl]NO₃] | 15 | 0/6 | 22 | 0/6 | 19 | 1/6 | 61 | 0/6 | -78 | 0/6 | -94 | 0/6 | 
cis-[Pt(NH₃)₂Cl₂] [Positive Control, reference compound] |  |  |  |  |  |  |  |  |  |  |  |  | Positive Control %ILS ([1]; S180a, positive control 8 mg/kg cisplatin in 0.15 M NaCl ip): 65% and 80%; Positive Control Surv. ([1]; S180a, positive control 8 mg/kg cisplatin in 0.15 M NaCl ip, survivors per 6 mice): 1/6 and 3/6; Positive Control %ILS ([2]; L1210, positive control 8 mg/kg cisplatin in 0.15 M NaCl ip): 149%; Positive Control Surv. ([2]; L1210, positive control 8 mg/kg cisplatin in 0.15 M NaCl ip, survivors per 6 mice): 2/6
